Common to all, as to format: in vivo, female Sprague-Dawley rats
Test [1] concerns hyperactive bladder (acetic acid). The experiment in a line: Continuous CMG, hyperactive bladder induced by acetic acid (Examples 5-6). The method, then: (§1) This was followed by instillation of liposomes (LP) in saline (in the case of the former) or LP/KCl.
(§2) Intravesical bladder pressure was recorded via a transurethral catheter in adult female Sprague-Dawley rats anesthetized with urethane (1.2 g/kg) administered by subcutaneous injection (sc). Some animals were pretreated with capsaicin (125 mg/kg, sc) four days prior to the experiments. […] Parameters measured included intercontraction interval (ICI), amplitude of bladder contractions, compliance and micturition pressure threshold (PT).
(§3) Animal Preparation. Thirty-four female Sprague-Dawley rats (250-300 g) were used in this study. Animals were anesthetized with urethane (1.2 g/kg, sc). Body temperature was maintained in the physiological range using a heating lamp.
(§4) Cystometrogram (CMG). A transurethral bladder catheter (PE-50) was connected via a three-way stopcock to a pressure transducer and to a syringe pump. This was used to record intravesical pressure and to infuse solutions into the bladder. A control CMG was performed by slowly filling the bladder with saline (0.04 ml/min) to elicit repetitive voiding. The parameters recorded were amplitude, PT, compliance, and ICI of reflex bladder contractions. Measurements in each animal represented the average of 3 to 5 bladder contractions.
(§5) Induction of a Hyperactive Bladder. […] L. Cheng et al., 1993, Am. J. Physiol. 265:R132-138). The experimental design is illustrated in FIG. 7. The KCl concentration used was within the range of concentrations present in normal rat urine (M. Ohnishi et al., 2001, Toxicol. Appl. Pharmacol. 174:122-129).
(§6) Preparation of Liposomes (LP). LP were prepared as described by Kirby and Gregoriadis (C. J. Kirby and G. Gregoriadia, 1984, “A simple procedure for preparing liposomes capable of high encapsulation efficiency under mild conditions,” Liposome Technology; G. Gregnoriadis, Ed., C.R.C. Press, Inc., Boca Raton, Fla., Vol. 1, p. 20). Briefly, LP were constructed as a 2:1 molar ratio of L-α-phosphatidylcholine and cholesterol (Sigma Chemical Co., St. Louis, Mo.) to a final lipid concentration of 2 mg/ml in saline. Lipids in chloroform were dried down together in the proper ratio under nitrogen. The residues were reconstituted as LP in saline or 500 mM KCl by intense sonication.
(§7) Statistical Analyis. Statistical analyses were performed using Student's t test for paired or unpaired data, where applicable. A p-value less than 0.05 was considered significant. All data are expressed in Example 2 (below) as means±S.E.

Test [2] has as its system acute hyperactive bladder. Briefly: Continuous CMG, acute hyperactive bladder model with intravesical PS and KCl (Examples 7-8). Here is the method: An animal model for acute hyperactive bladder in rats was developed using intravesical infusion of PS, an agent used to break down urothelial barrier function and physiological concentrations of KCl.
Continuous CMGs were performed in urethane-anesthetized female rats. The bladder was filled (0.04 ml/min) with normal saline followed by intravesical infusion for a 60 minute period with a test solution comprising either KCl (100 or 500 mM) or PS (10 or 30 mg/ml). Following this, 10 mg/ml PS treated animals were infused intravesically with 100, 300 or 500 mM KCl. Some animals were pretreated with capsaicin ([…], sc) four days before the experiments.
Animal Preparation. The study was performed on 40 female Sprague-Dawley rats weighing 250-300 gm. Animals were anesthetized with 1.2 gm/kg urethane injected subcutaneously. Body temperature was maintained in the physiological range using a heating lamp.
Cystometrogram (CMG). PE-50 tubing (Clay-Adams, Parsippany, N.J.) was inserted into the bladder through the urethra and connected via a three-way stopcock to a pressure transducer and to a syringe pump. This was used for recording intravesical pressure and for infusing solutions into the bladder. A control CMG was performed by slowly filling the bladder with saline (0.04 ml/min) to elicit repetitive voiding. The amplitude, PT, compliance and intercontraction interval (ICI) of reflex bladder contractions were recorded. Pressure threshold (PT) represents the pressure that induces the initial bladder contraction. PT often has been used as a parameter corresponding to afferent nerve activity for the induction of reflex bladder contractions. Measurements in each animal represented the average of 3 to 5 bladder contractions.
After performing control CMGs with saline infusion, three intravesical infusion experiments were performed in parallel: (1) infusion of KCl (100 or 500 mM in saline) for one hour (N=4 in each group); (2) infusion of PS (Sigma Chemical Co.; 30 mg/ml in saline) for one hour (N=6); and (3) infusion of PS (10 mg/ml) for one hour, followed by 100, 300 or 500 mM KCl for one hour (N=6, in each subgroup). In four animals, capsaicin dissolved in a vehicle containing 10% ethanol, 10% TWEEN®80 and 80% physiological saline, at a concentration of 20 mg/ml was given subcutaneously in divided doses on 2 consecutive days. The doses included 25 and 50 mg/kg at a 12-hour interval on the first day and 50 mg/kg on the second day, as previously described (C. L. Cheng et al., 1993, Am. J. Physiol. 265:R132-138). All injections were performed under halothane anesthesia. Four days after the last dosage of capsaicin, the animals were anesthetized and treated with intravesical administration of PS (10 mg/ml) for 1 hour followed by KCl (500 mM) infusion.
Suppression of Micturition Reflex. To evaluate the direct effects of potassium on detrusor muscle, micturition reflex was blocked in 4 animals by either intravenous hexamethonium injection (25 mg/kg) (N=2) or transection of bilateral pelvic nerves (N=2).
Statistical Analysis. Statistical analyses were performed using Student's t test for paired or unpaired data, as applicable, with p<0.05 considered significant. Quantitative data are expressed in Example 8 (below) as means plus or minus standard error.

Test [3] relates to hyperactive bladder (PS/KCl). Briefly: Continuous CMG, hyperactive bladder induced by PS/KCl (Examples 5-6). Here is the method:
as §1, §2, §3, §4, §5, §6, §7

[4] abbreviates: AA 1 hr in capsaicin pretreated rats, N=4.
Setting [5] is: AA 2 hr in capsaicin pretreated rats, N=4.
[6] abbreviates: AA at 1 hour, capsaicin pretreated animals.
Setting [7] is: AA at 2 hours, capsaicin pretreated animals.
[8] abbreviates: Table 2A series: saline, AA 0.1% 1 h, LP 2 h, N=6.
Where [9] appears, read: Table 2B series: saline, AA 0.1% 1 h, saline, N=6.
Setting [10] is: Table 2C series: saline, LP 1 h, AA 1 h, N=6.
[11] abbreviates: Table 1A: PS 10 mg/ml infusion 1 hour after saline, N=6.

“Also recorded” adds a separate entry of the source.

Take `CC(=O)O` [AA, acetic acid]: the compliance reduction in test [1] (AA 0.1%, two series of experiments) is listed as 71-76%. Moreover, the ICI in test [1] (AA 1 hr in capsaicin pretreated rats (125 mg/kg sc, four days before), N=4) came to 10.2 ± 3.0 min. In addition, in test [1] (setting [4]), the Amplitude is 20.9 ± 2.5 cm H2O, the Compliance is 0.152±0.028 ml/cm H2O and the PT was 6.7 ± 0.2 cm H2O. In test [1] (setting [5]), the Amplitude stood at 23.6 ± 5.7 cm H2O, the Compliance was found to be 0.082±0.024 ml/cm H2O, the ICI is 4.6 ± 1.2 min and the PT came out at 6.7 ± 0.7 cm H2O. In addition, in test [1] (setting [6]), the ICI reduction is 51% and the compliance reduction was found to be 33%. In test [1] (setting [7]), the ICI decrease was 78% and the compliance decrease was 64%. In test [1] (AA infusion), the “Amplitude change” value is reported as “slight increase” and the “PT change” value is listed as “not significantly changed”. The “bladder hyperactivity in CMG tracings / summary” value in test [1] (FIGS. 10A-10F, summary of Examples 5-6) is given as “elicited bladder hyperactivity”. Besides, in test [1] (setting [8]), the Amplitude came to 36.8 ± 6.5 cm H2O, the Compliance was found to be 0.071±0.016 ml/cm H2O, the ICI came out at 2.4 ± 0.5 min and the PT worked out at 8.3 ± 0.9 cm H2O. In test [1] (setting [9]), this compound yielded an Amplitude of 37.0 ± 7.0 cm H2O, a Compliance of 0.079±0.026 ml/cm H2O, an ICI of 2.9 ± 0.9 min and a PT of 9.1 ± 1.4 cm H2O. In test [1] (setting [10]), this compound yielded an Amplitude of 38.0 ± 1.3 cm H2O, a Compliance of 0.071 ± 0.022 ml/cm H2O, an ICI of 3.1 ± 0.8 min and a PT of 6.7 ± 0.7 cm H2O. Also, in test [1] (following AA infusion), the “time until irritative effect evident” value lay within 20 to 30 min.
On to `COc1cc(CNC(=O)CCCCC=CC(C)C)ccc1O` [capsaicin, 8-methyl-N-vanillyl-6-nonenamid], for which, in test [1] (capsaicin pretreated animals), the “delay of bladder hyperactivity evoked by AA” value is 0.5 to 1 h. For the same compound, the “delay of onset of the irritative effects of AA” value in test [1] (pretreatment with capsaicin 125 mg/kg sc four days before) is on record as 30 to 60 min. For the same compound, the ICI decrease in test [2] (capsaicin pretreated animals, PS 10 mg/ml then KCl 500 mM, 2 hours of infusion) was found to be 35.5%. Also, the “delay of hyperactive bladder” value in test [2] (capsaicin pretreated animals, sequential PS 10 mg/ml and KCl 500 mM) is recorded as “about 1 hour”. The “delay of onset of irritative effects” value in test [2] (capsaicin pretreatment, PS 10 mg/ml then KCl 500 mM) was ~60 min. Also, the “PS/KCl-induced bladder hyperactivity after capsaicin pretreatment” value in test [2] (capsaicin sc in divided doses, four days before) was “suppressed PS/KCl-induced bladder hyperactivity”.
With protamine sulfate [PS], in test [3] (setting [11]), the Amplitude worked out at 27.5 ± 0.7 cm H2O, the Compliance is listed as 0.210 ± 0.031 ml/cm H2O, the ICI came out at 14.9 ± 1.7 min and the PT was found to be 5.9 ± 0.9 cm H2O. For the same compound, in test [3] (infused alone: PS 10 mg/ml or KCl 500 mM), the “change of ICI / CMGs” value was “not changed; also recorded: did not significantly change the CMGs”. Besides, in test [2] (10 mg/ml PS, one hour, N=18), the Amplitude worked out at 25.3 ± 2.0 cm H2O, the Compliance was 0.176 ± 0.013 ml/cm H2O, the ICI was determined as 17.8 ± 0.7 min and the PT is recorded as 3.4 ± 0.9 cm H2O. In test [2] (30 mg/ml PS, one hour, N=6), this compound displayed an Amplitude of 28.3 ± 3.1 cm H2O, a Compliance of 0.083 ± 0.022 ml/cm H2O, an ICI of 2.7 ± 0.7 min and a PT of 7.8 ± 1.1 cm H2O. For the same compound, in test [2] (PS 30 mg/ml), the ICI decrease is 80.6%, the PT increase worked out at 36.8%, the compliance decrease was determined as 63.6% and the “delay to irritative effect” value is recorded as 40 to 45 min. Besides, the “bladder hyperactivity” value in test [2] (high concentrations of PS) is given as “induced bladder hyperactivity (decreased ICI)”. Besides, the “irritative effects / CMG parameters” value in test [2] (low concentration of PS (10 mg/ml), one hour) is “not observed; also recorded: no significant change; also recorded: produced no effect”.
